Laboratory results reported in patent US9643928B2, “Crystalline forms of {[1-cyano-5-(4-chlorophenoxy)-4-hydroxy-isoquinoline-3-carbonyl]-amino}-acetic acid” (FIBROGEN, INC., priority 2013, dated 2017).
“Also recorded” adds a separate entry of the source.

Assays:
healthy male volunteers = assay: Single oral dose in healthy male volunteers: erythropoietin, reticulocyte and hemoglobin levels; format: in vivo, human
Protocol: A single dose of Compound A (Form 2, capsules) was administered orally to healthy male volunteers. Compound A was provided in 1 mg and 5 mg capsules with the dose being rounded to the nearest whole capsule. In cohorts 1-4 the doses were 0.05 mg/kg, 0.15 mg/kg, 0.3 mg/kg and 0.4 mg/kg respectively. The time points for blood collection were: predose, 8, 12, 16, 20, 24, 30, 48, 72, 96 and 120 hours, days 8, 10, 12, and 15 post dose.

[1] = test system: Female Lewis rats challenged with peptidoglycan-polysaccharide polymers (PG-PS); assay: Anemia of chronic disease model (PG-PS challenge); format: in vivo
Protocol: Female Lewis rats were challenged with peptidoglycan-polysaccharide polymers (PG-PS) to induce arthritis and anemia. Arthritis and anemia were allowed to develop for 28 days prior to initiation of treatment with Compound A (oral gavage, 8 or 20 mg/kg) or vehicle (n=8/group). Treatments were administered 3 times per week (Monday, Wednesday, and Friday), for 2 weeks. Progression of the model was monitored by measurement of paw swelling and hematology parameters. Blood samples were analyzed for hematopoiesis and iron parameters. The study also included three non-challenged control groups (n=5/group) that were injected with saline rather than PG-PS and then treated with vehicle or Compound A (8 or 20 mg/kg) as described for the PG-PS animals. […] In addition to anemia, PG-PS-challenged rats developed systemic inflammation and arthritis, as indicated by elevated white blood cell counts and swelling of the extremities.

male Swiss Webster mice = assay: Hemoglobin and hematocrit levels in mice after 1 week of intermittent oral dosing; format: in vivo
Protocol: Compound A (2, 6, 20, 60, 100 or 200 mg/kg as an oral gavage) or vehicle control were administered orally 3 times in 1 week on Monday, Wednesday, and Friday (4-8 male Swiss Webster mice/group). Three days after the last dose, all animals were euthanized and blood and serum were collected for complete blood counts (CBC) and serum chemistry.

[2] = test system: Female Wistar rats with subtotal nephrectomy; assay: Anemia induced by chronic kidney disease (5/6 nephrectomy, rat remnant kidney model); format: in vivo
Text: Female Wistar rats underwent subtotal nephrectomy (⅚) surgery to induce chronic kidney disease by ligating the left kidney to infarct ⅔ of the kidney while the right kidney underwent simultaneous total nephrectomy. As a control, additional animals underwent a sham surgery, without nephrectomy. Five weeks after surgery, anemia and chronic kidney disease in the nephrectomized animals were confirmed by clinical pathology and animals were then assigned to one of three treatment groups (n=8/group) and treated with 0 (vehicle), 8 or 20 mg/kg Compound A. The sham group (n=8) received 0 mg/kg (vehicle). Starting 6 weeks after surgery, all animals were dosed TIW (on Monday, Wednesday, and Friday) via oral gavage for 2 weeks. Whole blood samples were collected 5, 7, and 8 weeks after surgery.

[3] = Stability of Form 1 in water at 25° C., XRPD; format: physicochemical; settings: six days
Protocol: Form 1 was suspended in water at 25° C., and the crystallinity of the solid was analysed by XRPD over a period of time.

[4] = Relative stability of Form 1 and Form 2 (summary of Example 3); format: physicochemical
Text: The relative stability of Form 1 and Form 2 have been studied under different conditions (see Example 3).

[5] = Reflux of Form 1 in water, monitored by XRPD; format: physicochemical
Text: Form 1 was refluxed in water and the crystallinity of the solid was monitored by XRPD.

[6] = Maturation of Form 1 in water with or without seeds of Form 2, XRPD; format: physicochemical; settings: 50° C./room temperature (4 h-cycles), 75% RH
Protocol: A suspension of a solid mixture of Form 1 and Form 2 (1:1) in water was incubated at 50° C./room temperature (4 h-cycles), and at 75% RH for four days. After this time, the solid was analysed by XRPD. The crystalline pattern matched Form 2, and no traces of Form 1 were detected in this analysis.
Form 1 was suspended in water and incubated at 50° C./room temperature (4 h-cycles), and at 75% RH. In this case, the transformation of Form 1 into Form 2 was slower.

[7] = Stability of solid forms in humidity chamber at 40° C. and 75% RH, re-analysed by XRPD; format: physicochemical; settings: one week
Protocol: The solids were then stored in the humidity chamber at 40° C. and 75% RH for a week to assess their stability under these conditions, and re-analysed by XRPD.

[8] = cohort 2, 0.15 mg/kg single oral dose
[9] = cohort 3, 0.3 mg/kg single oral dose
[10] = 8 or 20 mg/kg oral 3 times per week for 2 weeks, statistically significant at 20 mg/kg
[11] = all dose groups 2-200 mg/kg, oral gavage 3 times in 1 week, three days after last dose
[12] = 8 and 20 mg/kg oral TIW, after 2 weeks of treatment

N#Cc1nc(C(=O)NCC(=O)O)c(O)c2c(Oc3ccc(Cl)cc3)cccc12 [Compound A, {[1-cyano-5-(4-chlorophenoxy)-4-hydroxy-isoquinoline-3-carbonyl]-amino}-acetic acid]
change in mean hemoglobin levels (healthy male volunteers; Cohort 1, 0.05 mg/kg, Day 0 to Day 8): did not change
Reticulocyte values (% baseline ± SD) (healthy male volunteers; Cohort 1, 0.05 mg/kg, Day 3): 104 ± 8 % baseline
Reticulocyte values (% baseline ± SD) (healthy male volunteers; Cohort 1, 0.05 mg/kg, Day 5): 111 ± 10 % baseline
Reticulocyte values (% baseline ± SD) (healthy male volunteers; Cohort 1, 0.05 mg/kg, Day 8): 120 ± 20 % baseline
Reticulocyte values (% baseline ± SD) (healthy male volunteers; Cohort 2, 0.15 mg/kg, Day 3): 111 ± 19 % baseline
Reticulocyte values (% baseline ± SD) (healthy male volunteers; Cohort 2, 0.15 mg/kg, Day 5): 121 ± 22 % baseline
Reticulocyte values (% baseline ± SD) (healthy male volunteers; Cohort 3, 0.3 mg/kg, Day 3): 127 ± 3 % baseline
Reticulocyte values (% baseline ± SD) (healthy male volunteers; Cohort 3, 0.3 mg/kg, Day 5): 141 ± 22 % baseline
Reticulocyte values (% baseline ± SD) (healthy male volunteers; Cohort 4, 0.4 mg/kg, Day 3): 163 ± 21 % baseline
Reticulocyte values (% baseline ± SD) (healthy male volunteers; Cohort 4, 0.4 mg/kg, Day 5): 134 ± 22 % baseline
time of peak erythropoietin levels (healthy male volunteers; cohort 1, 0.05 mg/kg single oral dose): approximately 16.8 hours
mean maximum plasma erythropoietin concentration (healthy male volunteers; cohort 1, 0.05 mg/kg single oral dose, baseline mean 11.4 mIU/mL): 27.2 mIU/mL
median maximum erythropoietin concentration (healthy male volunteers; [8]): 81.7 mIU/ml
time of peak erythropoietin levels (mean) (healthy male volunteers; [8]): 14 h
time until mean erythropoietin levels trended back to baseline (healthy male volunteers; [8]): approximately 5 days
Reticulocyte values (% baseline ± SD) (healthy male volunteers; cohort 2, 0.15 mg/kg, Day 8): 180 ± 53 % baseline
mean hemoglobin increase (healthy male volunteers; cohort 2, 0.15 mg/kg, Day 8): 0.3 g/dL
average maximum erythropoietin concentration (healthy male volunteers; [9]): approximately 620 mIU/mL
time of peak erythropoietin levels (mean) (healthy male volunteers; [9]): 23 h
Reticulocyte values (% baseline ± SD) (healthy male volunteers; cohort 3, 0.3 mg/kg, Day 8): 231 ± 40 % baseline
mean hemoglobin increase (healthy male volunteers; cohort 3, 0.3 mg/kg, Day 8): 0.8 g/dL
median time to maximum EPO concentration (healthy male volunteers; cohort 4, 0.4 mg/kg single oral dose): 20 h
mean maximum plasma erythropoietin concentration (healthy male volunteers; cohort 4, 0.4 mg/kg single oral dose, pending re-analysis of one sample above upper limit of quantitation): 2,900 mIU/mL
Reticulocyte values (% baseline ± SD) (healthy male volunteers; cohort 4, 0.4 mg/kg, Day 8): 376 ± 60 % baseline
mean hemoglobin increase (healthy male volunteers; cohort 4, 0.4 mg/kg, Day 8): 0.7 g/dL
mean hemoglobin increase (healthy male volunteers; cohort 4, 0.4 mg/kg, Day 15): 1.1 g/dL
HCT decrease induced by PG-PS challenge [1, 10]: corrected
Hb decrease induced by PG-PS challenge [1, 10]: corrected
MCH decrease induced by PG-PS challenge [1, 10]: corrected
RBC decrease induced by PG-PS challenge [1, 10]: corrected
TIBC increase induced by PG-PS challenge [1, 10]: corrected
anemia associated with anemia of chronic disease ([1]; intermittent treatment): significantly alleviated
Mean hematocrit (HCT) compared to vehicle control (male Swiss Webster mice; [11]): significantly higher
Mean hemoglobin (Hb) compared to vehicle control (male Swiss Webster mice; [11]): significantly higher
Mean red blood counts (RBC) compared to vehicle control (male Swiss Webster mice; [11]): significantly higher
Hb levels increase (male Swiss Webster mice; lowest dose tested, 2 mg/kg, 1-week study): more than 1 g/dL
Hb, HCT and RBC (all three parameters) relative to non-anemic sham control group ([2]; 20 mg/kg oral TIW, 2 weeks): normalized
MCV in nephrectomized animals ([2]; 20 mg/kg, after 2 weeks of treatment): significantly higher
HCT compared to vehicle controls [2, 12]: significantly elevated
Hb compared to vehicle controls [2, 12]: significantly elevated
RBC compared to vehicle controls [2, 12]: significantly elevated
MCH values in nephrectomized animals ([2]; 8 and 20 mg/kg, not significant): higher
anemia associated with 5/6 nephrectomy ([2]; intermittent treatment for 2 weeks): corrected

N#Cc1nc(C(=O)NCC(=O)O)c(O)c2c(Oc3ccc(Cl)cc3)cccc12 [Form 1, {[1-cyano-5-(4-chlorophenoxy)-4-hydroxy-isoquinoline-3-carbonyl]-amino}-acetic acid]
changes in crystalline pattern in aqueous suspension [3]: remains unchanged; also recorded: No changes
hygroscopicity [4]: low hygroscopicity
stability to humidity [4]: stable
conversion of form on maturation in isopropyl acetate (IPAc) ([4]; 5° C., 25° C. and 50° C.): converts to Form 2
conversion of form on heating ([4]; heating above 200° C.): converts to Form 2
crystallinity by XRPD on reflux in water ([5]; after 2.5 h): several new diffraction peaks corresponding to Form 2
crystallinity by XRPD on reflux in water ([5]; after 10 h at reflux): transformation of Form 1 into Form 2 was complete
transformation on maturation in water without seeds of Form 2 ([6]; after 4 days): clear indication of Form 2 forming
transformation on maturation in water without seeds of Form 2 ([6]; after 15 days): completely turned to Form 2

N#Cc1nc(C(=O)NCC(=O)O)c(O)c2c(Oc3ccc(Cl)cc3)cccc12 [Form 2, {[1-cyano-5-(4-chlorophenoxy)-4-hydroxy-isoquinoline-3-carbonyl]-amino}-acetic acid]
Stability at 40° C./75% RH (form found by XRPD) [7]: remained unchanged; also recorded: Form 2
hygroscopicity [4]: low hygroscopicity
stability to humidity [4]: stable
relative thermodynamic stability ([4]; conditions investigated): thermodynamically more stable than Form 1
transformation of Form 2 into Form 1 ([4]; conditions investigated): has not been observed

N#Cc1nc(C(=O)NCC(=O)O)c(O)c2c(Oc3ccc(Cl)cc3)cccc12 [XRPD 7]
Stability at 40° C./75% RH (form found by XRPD) [7]: changed into Form 2
